Laboratory results taken from publication PMC11088877, “AMP-activated protein kinase can be allosterically activated by ADP but AMP remains the key activating ligand” (Biochemical Journal, 2024).
Values joined by “and” are separate entries in the source; they are usually repeats but may differ in a detail not shown here. Identical values can stand only once. Like-named read-outs stand apart in the source and are kept apart here.

Columns and labels:
[1] = target: T1, human α2β2γ1 complex (WT) (Homo sapiens, UniProt P54619+P54646); experiment: Allosteric activation of WT human α2β2γ1 AMPK complex by AMP and ADP; format: biochemical
T1 construct: made in house; host or cells: Escherichia coli
Excerpt: (§1) To study allosteric activation with a more well-defined AMPK complex, and to study the effects of mutations in individual adenine nucleotide-binding sites on the γ subunit, we expressed a human α2β2γ1 complex in Escherichia coli and purified it utilizing the polyhistidine tag at the N-terminus of the α2 subunit. […] However, it had not been co-expressed with an N-myristoyl transferase so would not have been N-myristoylated on the β2 subunit. The complex was expressed not only with the WT γ1 sequence but also with mutations affecting hydrophobic residues previously shown to be involved in binding of the adenine moieties of nucleotides at CBS1 (L129D/V130D), CBS3 (V276G/L277G) and CBS4 (I312G). All four complexes co-purified as heterotrimeric 1:1:1 complexes as expected, and were phosphorylated and activated equally well either by CaMKK2 or the LKB1: STRADα:MO25α complex (Supplementary Figure S2). For the studies described below we phosphorylated Thr172 using a GST-tagged CaMKK2 and repurified AMPK using size exclusion chromatography and a glutathione-Sepharose column, which remove CaMKK2.
(§2) Figure 4. Allosteric activation of WT and mutant human α2β2γ1 AMPK complex by AMP and ADP at three different concentrations of ATP. The α2β2γ1 complex was phosphorylated on Thr172 prior to assay using CaMKK2. The γ1 subunit was either (A/E): WT; (B/F): a CBS1 mutant (L129D/V130D); (C/G): a CBS3 mutant (V276G/L277G); (D/H): a CBS4 mutant (I312G). Results are means of duplicate assays ± SD; error bars are not shown if they were smaller than the symbols used for mean values. Assays and curve fitting were as in Figure 1 at either 0.2 mM (left panels) or 5 mM (right panels) ATP. Best-fit values for all parameters used to generate the curves are listed in Supplementary Table S1.
(§3) Sources of antibodies were as described: pThr172 (AMPK-α: Cell Signaling Technologies, Danvers, MA, U.S.A., Cat# 2535), AMPK-α2 [22]. Rat liver AMPK was purified as described previously. Plasmid encoding human (His)6-tagged AMPK (α2β2γ1, bacterially expressed) generated as in [23], was a gift from AstraZeneca, Cambridge, U.K. The L129D/V130D (CBS1), V276G/L277G (CBS3) and I312G (CBS4) mutations in the α2β2γ1 complex were generated using the Quikchange II site-directed mutagenesis kit (Agilent Technologies) and confirmed by DNA sequencing. Human GST-tagged α2 kinase domain (1–310), LKB1:STRAD-α:MO25-α complexes, GST-tagged CaMKK2 [26], and PPM1A (PP2Cα) were produced as described. Bacterially expressed heterotrimers were activated by phosphorylation of Thr172 by GST-tagged CaMKK2 in the presence of ATP, and CaMKK2 was subsequently removed by passage through glutathione-Sepharose. Human GST-tagged α2 kinase domain was activated in a similar manner except that human (His)6-tagged LKB1:STRAD-α:MO25-α complex was used and removed after activation via passage through a His-Trap column. Recombinant human 5′-nucleotidase, CD73, Cat # 5795-EN-01, was from R&D systems (Minneapolis, MN, U.S.A.).
(§4) AMPK assays measured the transfer of radioactivity from [γ-^33P]ATP to a peptide substrate, which was separated from unreacted ATP by binding to P81 paper. This assay was described previously except that we used [γ-^33P] rather than [γ-^32P]ATP. In some assays (specified in Figure legends) the concentration of ATP was increased from 0.2 to 1 or 5 mM ATP, with MgCl2 concentrations maintained at a constant 4.8 mM excess above the concentration of ATP [19]. Where allosteric activation by AMP or ADP was being studied, we used the SAMS peptide as substrate. For all other assays the AMARA peptide was used.

[2] = target: T2, human α2β2γ1 complex, CBS1 mutant (L129D/V130D) (Homo sapiens, UniProt P54619+P54646, L129D/V130D); experiment: Allosteric activation of CBS1 mutant human α2β2γ1 AMPK complex; format: biochemical
T2 construct: made in house; host or cells: Escherichia coli
Excerpt: as §1, §2, §3, §4

[3] = system: bacterially expressed AMPK; details: 5 mM Mg2+, 200 µM ATP, cited from earlier work
[4] = target: T3, human α2β2γ1 complex, CBS4 mutant (I312G) (Homo sapiens, UniProt P54619+P54646, I312G); experiment: AMPK inactivation and Thr172 dephosphorylation by PPM1A, CBS4 mutant; format: biochemical; details: 300 µM nucleotide, absence of ATP
T3 construct: made in house; host or cells: Escherichia coli
Description: The relative roles of the three CBS sites in the other two mechanisms of activation of AMPK by AMP or ADP, i.e. promotion of Thr172 phosphorylation by LKB1, and protection against Thr172 dephosphorylation by protein phosphatases, have not been examined previously. As expected, incubation of the α2β2γ1 AMPK complex with a fixed, limiting amount of purified LKB1:STRADα:MO25α complex in the presence of 200 µM Mg.ATP^2− caused a large degree of activation (Figure 5A) and phosphorylation (Figure 5B) of AMPK (unphosphorylated α2β2γ1 complex), which were stimulated more than 2-fold by 300 µM AMP and 1.6-fold by 300 µM ADP.
Figure 6. Effects of AMP or ADP on AMPK inactivation and Thr172 dephosphorylation by PP2Cα (PPM1A). Human α2β2γ1 complexes (WT, or with L129D/V130D, V276G/L277G or I312G mutations affecting CBS1, CBS3 or CBS4 respectively), all phosphorylated on Thr172, were incubated with a fixed concentration of PP2Cα (PPM1A) in the presence or absence of AMP or ADP (both 300 µM) as described in the Materials and methods section. After the incubation, aliquots were withdrawn for (A) AMPK assay or (B) Western blots. […] For (B), due to a limit on the number of lanes that could be run on one gel, single replicates from the triplicate assays were analysed. […]

T2 sequence (P54619 whole entry L129D/V130D): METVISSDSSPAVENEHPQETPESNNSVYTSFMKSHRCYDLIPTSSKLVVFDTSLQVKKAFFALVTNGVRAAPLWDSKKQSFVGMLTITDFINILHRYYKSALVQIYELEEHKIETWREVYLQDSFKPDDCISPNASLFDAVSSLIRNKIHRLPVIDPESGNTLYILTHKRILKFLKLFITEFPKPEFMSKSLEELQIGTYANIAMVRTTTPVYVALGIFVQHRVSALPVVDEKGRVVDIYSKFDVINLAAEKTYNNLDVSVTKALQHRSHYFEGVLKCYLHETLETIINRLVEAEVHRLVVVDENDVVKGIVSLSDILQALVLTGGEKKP
T2 sequence (P54646 whole entry): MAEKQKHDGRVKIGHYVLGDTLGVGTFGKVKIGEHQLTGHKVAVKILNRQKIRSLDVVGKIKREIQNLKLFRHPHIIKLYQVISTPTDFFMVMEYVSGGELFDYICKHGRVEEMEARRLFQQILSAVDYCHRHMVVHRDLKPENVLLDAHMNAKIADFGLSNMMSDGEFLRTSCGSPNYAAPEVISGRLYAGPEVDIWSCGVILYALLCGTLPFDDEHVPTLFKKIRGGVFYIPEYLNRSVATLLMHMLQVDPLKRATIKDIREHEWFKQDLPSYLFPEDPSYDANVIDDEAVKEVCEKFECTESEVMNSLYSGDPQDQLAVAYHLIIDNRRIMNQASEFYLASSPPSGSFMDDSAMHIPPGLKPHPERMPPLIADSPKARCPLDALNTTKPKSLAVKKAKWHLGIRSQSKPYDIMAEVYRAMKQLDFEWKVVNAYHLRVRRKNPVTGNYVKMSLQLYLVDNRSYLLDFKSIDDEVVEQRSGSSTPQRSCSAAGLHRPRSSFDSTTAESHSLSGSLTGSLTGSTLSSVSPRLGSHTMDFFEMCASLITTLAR
T2 sequence (O43741 whole entry partner): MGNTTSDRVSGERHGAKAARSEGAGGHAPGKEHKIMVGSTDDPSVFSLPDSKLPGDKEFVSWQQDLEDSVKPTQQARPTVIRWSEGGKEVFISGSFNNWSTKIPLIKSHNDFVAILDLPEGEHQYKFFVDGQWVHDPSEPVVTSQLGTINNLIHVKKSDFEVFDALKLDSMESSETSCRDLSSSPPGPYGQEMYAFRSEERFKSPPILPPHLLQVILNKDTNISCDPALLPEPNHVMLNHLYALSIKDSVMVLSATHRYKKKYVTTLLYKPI
T1 sequence (P54619 whole entry): as the sequence (P54619 whole entry L129D/V130D) above, with D129L, D130V counted along it
T1 sequence (P54646 whole entry): as the sequence (P54646 whole entry) above
T1 sequence (O43741 whole entry partner): as the sequence (O43741 whole entry partner) above
T3 sequence (P54619 whole entry I312G): as the sequence (P54619 whole entry L129D/V130D) above, with D129L, D130V, I312G counted along it
T3 sequence (P54646 whole entry): as the sequence (P54646 whole entry) above
T3 sequence (O43741 whole entry partner): as the sequence (O43741 whole entry partner) above

With `Nc1ncnc2c1ncn2[C@@H]1O[C@H](COP(=O)(O)O)[C@@H](O)[C@H]1O` [AMP] the “Activation (maximal)” value ([1]; 0.2 mM ATP) was 2.6 fold and 2.6 (2.5-2.6) fold, the IC50 ([1]; 0.2 mM ATP) was 2600 µM and the IC50/EC50 ([1]; 0.2 mM ATP) was 2600. The EC50 ([1]; 0.2 mM ATP, read-out: EC50) was 0.99 µM and 1 µM, the “Activation (extrapolated maximal)” value ([1]; 5.0 mM ATP) was 3.0 fold and 3.0 (2.9-3.1) fold and the IC50 ([1]; 5.0 mM ATP) was 52000 µM. The IC50/EC50 ([1]; 5.0 mM ATP) was 2700, the EC50 ([1]; 5.0 mM ATP, read-out: EC50) was 19 µM and the “Activation (maximal)” value ([2]; 0.2 mM ATP) was 2.4 (2.3-2.4) fold. The EC50 ([2]; 0.2 mM ATP) was 1.6 µM, the IC50 ([2]; 0.2 mM ATP) was 3400 µM and the IC50/EC50 ([2]; 0.2 mM ATP) was 2100. The “Activation (maximal)” value ([2]; 5.0 mM ATP) was 2.4 fold and 2.3 fold, the EC50 ([2]; 5.0 mM ATP) was 19 µM and the IC50 ([2]; 5.0 mM ATP) was 52000 µM. The IC50/EC50 ([2]; 5.0 mM ATP) was 2700, the allosteric activation ([3]; 200 µM AMP) was ~2 fold and the “protective effect of nucleotide against PPM1A in the mutant” value [4] was “almost completely abolished”.

In the case of `Nc1ncnc2c1ncn2[C@@H]1O[C@H](COP(=O)(O)OP(=O)(O)O)[C@@H](O)[C@H]1O` [ADP], the “Activation (maximal)” value ([1]; 0.2 mM ATP) is reported as “did not cause allosteric activation and none”, the IC50 ([1]; 0.2 mM ATP) is reported as 2600 µM and the “maximal activation actually reached” value ([1]; 5 mM ATP) is reported as 1.6 fold. The “Activation (extrapolated maximal)” value ([1]; 5.0 mM ATP) was 9.9 fold and 9.9 (2.8 -??) fold, the IC50 ([1]; 5.0 mM ATP) was 1200 µM and the IC50/EC50 ([1]; 5.0 mM ATP) was 1.5. For the same compound, the EC50 ([1]; 5.0 mM ATP, read-out: EC50) was 785 µM, the EC50 ([1]; 5 mM ATP, read-out: EC50 for activation) was 780 µM and 800 µM and the “Activation (maximal)” value ([2]; 0.2 mM ATP) was “did not cause allosteric activation and none”. The IC50 ([2]; 0.2 mM ATP) was 1000 µM, the “Activation (maximal)” value ([2]; 5.0 mM ATP) was “abolished allosteric activation and essentially abolished allosteric activation and none” and the “effect on kinase activity” value ([3]; 200 µM ADP) was “a small inhibition”. For the same compound, the allosteric activation ([3]; any ADP concentration up to 200 µM) was “no allosteric activation” and the “protective effect of nucleotide against PPM1A in the mutant” value [4] was “almost completely abolished”.
